In US8470835B2, “Pyrimidinecarboxamide derivatives as inhibitors of Syk kinase” (Glaxo Group Limited, priority 2009, dated 2013):
Read-outs that look alike come from different tables or passages of the source. Each block holds one molecule with its values, some of them ahead of it.

How the values were obtained:
B lymphoma (BKS-2) = details: mouse, in vivo; cited from earlier work
[1] = tested on: patients with relapsed or refractory B-Cell non-Hodgkin's lymphoma (NHL); details: cited from earlier work
Whole blood B cells = assay: CD69 whole blood assay (6); assay type: cell-based; details: Homo sapiens, B-cell, all data points
Description: 6. CD69 Whole Blood Assay
Whole blood B cells are stimulated ex-vivo using anti-IgM. […] The subsequent autophosphorylation of Syk leads to initiation of a signalling cascade resulting in B cell activation as indicated by expression of the activation marker CD69 on the cell surface. CD20/CD69+ve whole blood B cells are detected by flow cytometry.
Stimulation of Whole Blood B Cells with Anti-IqM
100 μl heparinised human blood was added to a 5 ml polypropylene tube containing 1 μl appropriately diluted compound solution and incubated for 30 min at 37° C. with 5% CO2. B cells were stimulated with 10 μl Fab′2 fragments of goat anti-human IgM (67.5 μg/ml final) for a further 3.5 h under the conditions previously described. The red blood cells were lysed and all other cells fixed by the addition of 2 ml Lyse/Fix buffer for 10 min at room temperature.
The cells were stained using a cocktail of mouse anti-human CD20 FITC and mouse anti-human CD69 APC conjugated antibodies. CD20/CD69+ve B cells present in the sample were detected by flow cytometry.
Compound dilutions were prepared using the Biomek 2000 automated robotic pipetting system.

Ramos B cells = assay: Ramos pErk assay (4); assay type: cell-based; details: Homo sapiens, anti-IgM stimulated
Description: Ramos B cells (human B cells of Burkitt's Lymphoma) are stimulated using anti-IgM. […] As a result Erk is phosphorylated and following cell lysis is detected by an immune capture assay.
Stimulation of Ramos Cells with Anti-IqM
Cells were plated at a density of 5×10^5/well in a volume of 25 μl assay medium (RPMI containing 10% heat inactivated foetal calf serum, 1% L-glutamine and 1% Penicillin/Streptomycin) in 96 v-well polypropylene plates. […] Cells are lysed by the addition of 55 μL 2×RIPA lysis buffer for 2 h at 4° C.
50 μl cell lysate was transferred to a 96 well MSD plate coated with anti-pErk1/2 (Thr/Thy: 202/204; 185/187) capture antibody and incubated for 16 hours at 4° C. The plate was washed and an anti-pErk detection antibody added (25 μl/well) for 2 h at room temperature. This was removed, 150 μL MSD read buffer added and the resultant electrochemiluminescence signal measured.

[2] = target: Recombinant human VEGFR2 (KDR) (Homo sapiens (Human), UniProt P35968); assay: VEGFR2 (KDR) enzyme assay, TR-FRET kinase assay (3); assay type: biochemical; details: read-out: Vegfr enzyme assay (3) IC50
Description: VEGFR2 (KDR) Enzyme Assay—Time-resolved Fluorescence Resonance Energy Transfer Kinase Assay
Recombinant human VEGFR2 (KDR) intracellular domain (including the entire kinase domain) was expressed as a GST-6His-tagged protein*. The activity of VEGFR2 was assessed using a time-resolved fluorescence resonance energy transfer (TR-FRET) assay. Test compounds at the desired concentrations in 100% DMSO or 100% DMSO vehicle were added in 0.1 μL to a Greiner low-volume, 384-well, black plate (#784076). The plate was centrifuged minimally at 1000 RPM for 1 min. to force all of the liquid to the bottom of the wells prior to addition of any assay reagents. *Purification of Recombinant GST-6His-VEGFR2
VEGFR2 (100 nM typically) was activated at room temperature for 20 min. in the presence of 100 mM HEPES, pH 7.5, 10 mM MgCl2, 100 μM ATP, 300 μM DTT, and 0.1 mg/mL BSA. […] The solution of activated VEGFR2 was diluted 100-fold in 200 mM HEPES, pH 7.5, 0.2 mg/mL BSA, and 0.6 mM DTT. The VEGFR2 catalyzed reaction was initiated by the addition of 5 μL of the diluted, activated VEGFR2. […] After incubation for 10 min. at room temperature, phosphorylation of the biotinylated peptide substrate was measured as a ratio of specific 665 nm energy transfer signal to reference europium 615 nm signal using a Viewlux 1430 ultraHTS Microplate Imager (PerkinElmer, Turku, Finland).

allergic rhinitis [3] = details: phase II; cited from earlier work
allergic rhinitis [4] = details: dosed intranasally; cited from earlier work

Chain of Recombinant human VEGFR2 (KDR) (P35968 786-1356): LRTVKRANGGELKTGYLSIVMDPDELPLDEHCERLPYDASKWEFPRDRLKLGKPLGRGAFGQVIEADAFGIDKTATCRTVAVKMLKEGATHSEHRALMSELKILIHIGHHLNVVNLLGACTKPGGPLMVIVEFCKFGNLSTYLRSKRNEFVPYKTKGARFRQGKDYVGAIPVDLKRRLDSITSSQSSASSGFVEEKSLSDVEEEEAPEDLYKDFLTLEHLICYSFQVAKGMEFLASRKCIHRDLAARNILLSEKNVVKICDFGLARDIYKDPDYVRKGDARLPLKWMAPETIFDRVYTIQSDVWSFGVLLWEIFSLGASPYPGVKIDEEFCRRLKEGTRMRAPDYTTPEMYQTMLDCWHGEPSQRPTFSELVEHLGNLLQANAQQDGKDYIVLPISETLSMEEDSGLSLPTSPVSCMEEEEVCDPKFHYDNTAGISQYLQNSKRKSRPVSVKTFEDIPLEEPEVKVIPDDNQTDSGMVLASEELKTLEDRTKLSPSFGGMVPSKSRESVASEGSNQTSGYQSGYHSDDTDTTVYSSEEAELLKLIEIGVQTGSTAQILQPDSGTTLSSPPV

Structure (SMILES): COc1cc(/C=C/C(=O)CC(=O)/C=C/c2ccc(O)c(OC)c2)ccc1O [curcumin]
- tumour burden as measured by the total splenocyte number (B lymphoma (BKS-2)): significant reduction of tumour burden

Structure (SMILES): COc1cc(Nc2ncc(F)c(Nc3ccc4c(n3)N(COP(=O)(O)O)C(=O)C(C)(C)O4)n2)cc(OC)c1OC [Example R788, fostamatinib disodium]
- clinical efficacy ([1]; patients with DLBCL and CLL/SLL): therapeutic benefit
- tolerability in patients ([1]; relapsed or refractory B-Cell NHL): well-tolerated

- IC50 (Whole blood B cells; read-out: CD69 whole blood assay (6) IC50): 500 nM
- IC50 (Whole blood B cells; read-out: CD69 whole blood assay (6) pIC50 (converted)): 501 nM
- IC50 (Ramos B cells; read-out: RAMOS pErk assay (4) IC50): 32 nM
- IC50 (Ramos B cells; read-out: RAMOS pErk assay (4) pIC50 (converted)): 31.6 nM
- IC50 [2]: 6300 nM
Structure (SMILES): Cc1cccc(Nc2nc(N[C@@H]3CCCC[C@@H]3N)ncc2C(N)=O)c1 [Reference example 1]

Structure (SMILES): Oc1cccc(Nc2ncc(F)c(Nc3cccc(O)c3)n2)c1 [Example R112]
- efficacy versus placebo (allergic rhinitis [3]): lack of efficacy versus placebo
- change in PGD2 (allergic rhinitis [4]): statistically significant decrease
- clinical safety (allergic rhinitis [4]): safe across a range of indicators
